Data reported in PMC10165273, “Itch receptor MRGPRX4 interacts with the receptor activity–modifying proteins” (The Journal of Biological Chemistry, 2023).
Several values for one entry are separate records, joined by “and”; a condition that tells them apart may be missing. Equal entries are not always repeated. Where two headings read alike, the source gives them in different places.

Legend:
Assay type in all cases: cell-based
[1] = biological target: T1, MRGPRX4 + RAMP1 (Homo sapiens, UniProt Q96LA9); test: IP1 accumulation, MRGPRX4 coexpressed with RAMP1; set-up: key to IP1 Basal / response to agonist, X4:ramp1.I:1 / response to agonist, X4:ramp1.I:2 / response to agonist, X4:ramp1.I:0.25 / response to agonist, X4:ramp1.I:0.5: % IP1; unstimulated mock = 0%, fully stimulated MRGPRX4 = 100%; conditions: for EC50: read-out: IP1 EC50; for IP1 accumulation (normalized): MRGPRX4+RAMP1 1pg 1:1, Supplementary Figure 5d, 5g
T1 construct: expressed in transfected cells; host or cells: HEK293T
Protocol: HEK293T cells were transfected with 1 pg/cell of MRGPRX4 DNA, and the amount of DNA was kept constant at 2 pg/cell with pcDNA3.1(+) empty vector, unless otherwise specified. Twenty four hours after transfection, IP1 assay was performed as previously described ([51]). When applicable, cells were treated with 1 μM YM254890 (YM) or different concentrations of U73122 for 1 h prior to addition of agonist or buffer. After incubation for 2 h, HTRF reagents and IP1 calibration standards were added and incubated for 2 h in the dark at room temperature. Time-resolved fluorescence signals were read on the BioTek Synergy NEO-TRF Hybrid multi-mode reader (BioTek Instruments). All data were carried out in three independent experiments with three technical replicate each.
For a homogenous transfection of MRGPRX4, a master mix of MRGPRX4 DNA was made prior to addition of the RAMP DNA. […]
Data reduction, standard calibration, and transformation of HTRF data were performed as previously described ([51]). Normalized IP1 values were calculated relative to the unstimulated mock-transfected cells (set to 0%) and fully stimulated MRGPRX4 (alone if applicable) (set to 100%).

[2] = biological target: T1, MRGPRX4 + RAMP1; test: BRET2 β-arrestin2 recruitment, MRGPRX4 with RAMP1; conditions: RAMP1 coexpression vs MRGPRX4 alone (Fig. 5F)
Protocol: (§1) The method for homogenous transfection of β-Arrestin and BRET^2 assay of β-Arrestin recruitment has been described previously ([51]). […] BRET^2 measurements were taken on the BioTek Synergy NEO2 microplate reader.
(§2) The BRET ratio for each sample was determined by calculating the ratio of the light intensity emitted by the GFP10 (515 nm) (acceptor) over the light intensity emitted by the RLuc3 (395 nm) (donor). Net BRET^2 was determined by subtracting the basal BRET^2 (β-arrestin-RLuc3 only) signal from the BRET^2 signals. All BRET values were normalized to the MRGPRX4-only condition.

[3] = biological target: T2, MRGPRX4 (Homo sapiens, UniProt Q96LA9); test: BRET2 β-arrestin1 recruitment to MRGPRX4; conditions: for net BRET2 ratio, βArr1 recruitment: Fig 5a, 100µM ligand, replicate values, listed as Ng
T2 construct: expressed in transfected cells; host or cells: HEK293T
Protocol: as §1
For MRGPRX4 DNA titration assays, HEK293T cells were cotransfected with either β-Arrestin1 or β-Arrestin2 with increasing amounts of MRGPRX4 (0.5, 1, or 2 pg/cell).
as §2

[4] = MRGPRX4 + RAMP1 0.5 pg (Fig. S3), normalized per agonist
[5] = MRGPRX4 + RAMP1 1 pg (Fig. S3), normalized per agonist
[6] = MRGPRX4 + RAMP1 2 pg (Fig. S3), normalized per agonist
[7] = Tet-On MRGPRX4:RAMP1 Ratio 1:0.5 (Fig. S5D)
[8] = Tet-On MRGPRX4:RAMP1 Ratio 1:0.75 (Fig. S5D)
[9] = Tet-On MRGPRX4:RAMP1 Ratio 1:1 (Fig. S5D)

T1 sequence (Q96LA9 whole entry): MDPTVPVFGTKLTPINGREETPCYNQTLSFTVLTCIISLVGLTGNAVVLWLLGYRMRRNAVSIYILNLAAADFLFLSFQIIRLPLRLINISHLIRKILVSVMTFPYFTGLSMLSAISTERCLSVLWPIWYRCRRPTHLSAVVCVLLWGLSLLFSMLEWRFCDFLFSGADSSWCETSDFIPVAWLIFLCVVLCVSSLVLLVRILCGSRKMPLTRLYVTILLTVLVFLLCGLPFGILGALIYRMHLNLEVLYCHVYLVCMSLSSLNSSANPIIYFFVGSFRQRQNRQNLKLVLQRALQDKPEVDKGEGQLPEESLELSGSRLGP
T2 sequence (Q96LA9 whole entry): as above

CC(C)[C@H]1CC[C@H](C(=O)N[C@H](Cc2ccccc2)C(=O)O)CC1 [Nateglinide]
EC50 ([1]; MRGPRX4 + RAMP1 0.25 pg (Fig. S3), normalized per agonist): 11.5 µM
Emax ([1]; MRGPRX4 + RAMP1 0.25 pg (Fig. S3), normalized per agonist, read-out: IP1 Emax): 112%
Emax ([1]; MRGPRX4 + RAMP1 0.25 pg (Fig. S3), normalized per agonist, read-out: IP1 span): 92.4%
IP1 Basal [1, 4]: 18.21
EC50 [1, 4]: 9.56 µM
Emax ([1]; MRGPRX4 + RAMP1 0.5 pg (Fig. S3), normalized per agonist, read-out: IP1 Emax): 115%
Emax ([1]; MRGPRX4 + RAMP1 0.5 pg (Fig. S3), normalized per agonist, read-out: IP1 span): 96.6%
IP1 Basal [1, 5]: 16.52
EC50 [1, 5]: 9.45 µM
Emax ([1]; MRGPRX4 + RAMP1 1 pg (Fig. S3), normalized per agonist, read-out: IP1 Emax): 114%
Emax ([1]; MRGPRX4 + RAMP1 1 pg (Fig. S3), normalized per agonist, read-out: IP1 span): 97.4%
IP1 Basal [1, 6]: 11.98
EC50 [1, 6]: 9.37 µM
Emax ([1]; MRGPRX4 + RAMP1 2 pg (Fig. S3), normalized per agonist, read-out: IP1 Emax): 114%
Emax ([1]; MRGPRX4 + RAMP1 2 pg (Fig. S3), normalized per agonist, read-out: IP1 span): 102%
IP1 Basal [1, 7]: 7.772
EC50 [1, 7]: 8.42 µM
Emax ([1]; Tet-On MRGPRX4:RAMP1 Ratio 1:0.5 (Fig. S5D), read-out: IP1 Emax): 111%
Emax ([1]; Tet-On MRGPRX4:RAMP1 Ratio 1:0.5 (Fig. S5D), read-out: IP1 span): 104%
IP1 Basal [1, 8]: 6.875
EC50 [1, 8]: 5.95 µM
Emax ([1]; Tet-On MRGPRX4:RAMP1 Ratio 1:0.75 (Fig. S5D), read-out: IP1 Emax): 90%
Emax ([1]; Tet-On MRGPRX4:RAMP1 Ratio 1:0.75 (Fig. S5D), read-out: IP1 span): 83.1%
IP1 Basal [1, 9]: 7.220
EC50 [1, 9]: 6.43 µM
Emax ([1]; Tet-On MRGPRX4:RAMP1 Ratio 1:1 (Fig. S5D), read-out: IP1 Emax): 89.6%
Emax ([1]; Tet-On MRGPRX4:RAMP1 Ratio 1:1 (Fig. S5D), read-out: IP1 span): 82.3%
IP1 accumulation (normalized) ([1]; log [nateglinide] (M) -4): 91.5442 and 89.3648 and 84.5333 and 68.7205
IP1 accumulation (normalized) ([1]; log [nateglinide] (M) -4.69897): 71.6977 and 68.3681 and 72.5875
IP1 accumulation (normalized) ([1]; log [nateglinide] (M) -5.39794): 40.9098 and 36.9736 and 38.5575
IP1 accumulation (normalized) ([1]; log [nateglinide] (M) -6.09691): 15.3098 and 13.9439 and 10.1316
IP1 accumulation (normalized) ([1]; log [nateglinide] (M) -7.49485): 9.7787 and 6.02 and 5.114
decrease in β-arrestin2 recruitment upon nateglinide treatment [2]: ~10%
β-arrestin1 recruitment to MRGPRX4 ([3]; 100 μM agonist (Fig. 5A)): very low β-arrestin1 recruitment
net BRET2 ratio, βArr1 recruitment ([3]; MRGPRX4 20ng, 0.5 pg DNA/cell): 0.001598 and 0.001911 and 0.001766 and 0.001511 and 0.001907 and 0.001761 and 0.001482 and 0.001441 and 0.001223 and 0.001859 and 0.001157 and 0.001231 and 0.00136 and 0.0008839 and 0.000388 and 0.001053 and 0.001203 and 0.000951 and 0.0007681 and 0.0005323 and 0.0008933 and 0.0008719 and 0.001239 and 0.001046 and 0.001091
net BRET2 ratio, βArr1 recruitment ([3]; MRGPRX4 40ng, 1 pg DNA/cell): 0.001875 and 0.002517 and 0.002385 and 0.001913 and 0.002075 and 0.001709 and 0.001872 and 0.002414 and 0.002488 and 0.001826 and 0.002129 and 0.001258 and 0.0007412 and 0.002042 and 0.001771 and 0.001548 and 0.001966 and 0.0009568 and 0.001828 and 0.001183 and 0.001043 and 0.001073 and 0.0007023 and 0.00193 and 0.002589 and 0.001421 and 0.00209
net BRET2 ratio, βArr1 recruitment ([3]; MRGPRX4 80ng, 2 pg DNA/cell): 0.002996 and 0.002474 and 0.002377 and 0.001821 and 0.003223 and 0.002725 and 0.001839 and 0.003232 and 0.002812 and 0.002723 and 0.003057 and 0.001936 and 0.00205 and 0.002139 and 0.001864 and 0.00174 and 0.001944 and 0.002317 and 0.002724
net BRET2 ratio, βArr1 recruitment ([3]; βArr1 only, 0 pg MRGPRX4 DNA/cell): 0.0003439 and -7.335e-5 and -0.0002706 and -9.392e-5 and -0.0001296 and 0.0002236 and -2.118e-6 and -0.0001045 and 0.0001067 and 0.000324 and -0.0001421 and -0.0001819 and 0.0002245 and -0.0001005 and -0.000124 and -9.463e-5 and 0.0003743 and -0.0002797 and -0.0002549 and 6.253e-5 and 0.0001923 and 0.0001254 and -0.000481 and 0.0003557 and 0.0001817 and -2.148e-5 and -0.0001602
